Experimental data reported in PMC6327987, “Synthesis and biological evaluation of novel N^9-heterobivalent β-carbolines as angiogenesis inhibitors” (Journal of Enzyme Inhibition and Medicinal Chemistry, 2019).
Where “and” joins values, the source holds several entries; their conditions need not be identical. Equal entries are not always repeated. Entries after “also recorded” stand apart in the source; their conditions may differ. Where two headings read alike, the source gives them in different places.

Legend:
HepG2 = experiment: MTT cytotoxicity, liver carcinoma cells; assay type: cell-based; conditions: Homo sapiens; MTT assay, liver carcinoma HepG2, mean ± SD of at least three determinations
Description: (§1) Target compounds were assayed by the MTT method for cytotoxic activity, as described previously. The panel of cell lines included gastric carcinoma (BGC-823), liver carcinoma (HepG2), breast carcinoma (MCF-7), colon carcinoma (HT-29), esophageal carcinoma (Eca-109), and Lewis lung carcinoma (LLC). Growth inhibition rates were calculated with the following equitation: Inhibition ratio (%)= ODcompd−ODblank/ODDMSO−ODblank×100% . Half maximal inhibitory concentration (IC50) of each compound was calculated using software Graph-Pad Prism (version 6.0).
(§2) All the 24 novel synthesized N^9-heterobivalent β-carbolines (5a-x) were screened for their in vitro cytotoxic activities against six different cancer cell lines, namely BGC-823 (gastric carcinoma), HepG2 (liver carcinoma), MCF-7 (breast carcinoma), HT-29 (colon carcinoma), Eca-109 (esophageal carcinoma) and LLC (Lewis lung carcinoma). The IC50 values were the average of at least three independent experiments.

BGC-823 = experiment: MTT cytotoxicity, gastric carcinoma cells; assay type: cell-based; conditions: Homo sapiens; MTT assay, gastric carcinoma BGC-823, mean ± SD of at least three determinations
Description: as §1, §2

[1] = system: six tumor cell lines (BGC-823, HepG2, MCF-7, HT-29, Eca-109, LLC); experiment: MTT cytotoxicity, panel of six tumour cell lines (summary statements); assay type: cell-based; conditions: MTT assay, statement over all cell lines tested; read-out: IC50 against the tested six tumor cell lines
Description: as §1, §2

HT-29 = experiment: MTT cytotoxicity, colon carcinoma cells; assay type: cell-based; conditions: Homo sapiens; MTT assay, colon carcinoma HT-29, mean ± SD of at least three determinations
Description: as §1, §2

angiogenesis of CAM = experiment: Chicken chorioallantoic membrane (CAM) angiogenesis assay; assay type: in vivo; conditions: gelatin sponge discs 0.5, 5.0 and 50 µM/disc, 48 h, blood vessels counted
Description: Anti-angiogenic activity of the selected compounds 5b and 5w were investigated in vivo using a CAM assay. Five-day-old fertilized eggs were obtained from a local hatchery. We injected 5 ml of albumin, and the eggs were incubated horizontally to allow the CAM to detach from the shell to produce a sham chamber. Compounds 5b and 5w were prepared in gelatin sponge discs (5 × 5 × 5 mm^3) at the concentration of 0.5, 5.0, and 50 µM/disc, respectively. CA4P was used as the positive control drug. Discs containing the vehicle only (DMSO) were used as the negative control. A small window opening was made in the shell, and the discs were directly applied onto the CAM. The square opening was covered with sterilized surgical tape and the embryos were incubated for 48 h at 38.5 °C. The CAMs were photographed under a dissecting microscope and blood vessels in each CAM were counted. The results are presented as a mean percentage of inhibition to the control ± SD, (n = 3).
The anti-angiogenetic activity of compounds 5b and 5w were semi-quantitatively analyzed using Graph Pad Prism 5.0 (shown in Figure 2(B)).

KM mice [2] = experiment: Acute toxicity in mice (i.p.); assay type: in vivo; conditions: for Acute toxicity Neurotoxic effect: KM mice, intraperitoneal; for Acute toxicity LD50: both, KM, mouse, in vivo, ip, 14 days
Description: Specific pathogen-free KM mice (6–8 weeks old) weighing 19–22 g were housed in a mouse room at 24 ± 2 °C and 60–70% humidity with 12 h light/dark cycles. The mice were provided rodent laboratory chow pellets and tap water for a week to adapt to the environment of the mouse room. The experimental protocol was approved by the Institutional Animal Ethical Committee, and all of the animals were provided by Laboratory Animal Center of Xinjiang Uygur Autonomous Region. Prior to each experiment, mice were fastened overnight and allowed free access to water. Various doses of the asymmetric dimeric β-carboline derivatives, ranging from 5.0 to 500 mg kg^−1 dissolved in 0.5% carboxymethyl cellulose sodium (CMC-Na) salt solution, were given intraperitoneally to different groups of healthy KM mice, and each group contained 10 mice (5 males and 5 females). After the administration of the compounds, the mice were observed continuously for the first 2 h for any gross behavioral changes and deaths, then intermittently for the next 24 h, and occasionally thereafter for 14 days, and for the onset of any delayed effects. All of the animals were killed on the 14th day after drug administration, and they were checked macroscopically for possible damage to the heart, liver, and kidneys. Mice that experienced immediate death following drug administration were also examined for any possible organ damage. LD50 values were calculated graphically as described.
The LD50 values of the selected N^9-heterobivalent β-carbolines in mice after intraperitoneal (i.p.) administration are shown in Table 2. […] Death occurred mostly in the high dosage group within 4–8 h after injection. All of the surviving animals returned to normal within the next day.

Eca-109 = experiment: MTT cytotoxicity, esophageal carcinoma cells; assay type: cell-based; conditions: esophageal carcinoma Eca-109, mean ± SD of at least three determinations
Description: as §1, §2

MCF-7 = experiment: MTT cytotoxicity, breast carcinoma cells; assay type: cell-based; conditions: Homo sapiens, MCF7; MTT assay, breast carcinoma MCF-7, mean ± SD of at least three determinations
Description: as §1, §2

LLC = experiment: MTT cytotoxicity, Lewis lung carcinoma cells; assay type: cell-based; conditions: MTT assay, mean ± SD of at least three determinations
Description: as §1, §2

Sarcoma 180 [3] = experiment: In vivo antitumor activity, Sarcoma 180-bearing mice; conditions: i.p. once a day for seven days at the dosage of Table 2 (about one-fifth of LD50; CTX 30 mg kg^−1), tumour weight day 21, mean ± SD
Description: (§3) Sarcoma180 and Lewis lung cancer cell lines were provided by Shanghai Institute of Pharmaceutical Industry. Mice were inoculated with Sarcoma180 and Lewis lung cancer tumour cells. After 7 days, the tumours were removed and the cells were harvested. Mice received subcutaneous injections of viable tumour cells (2 × 10^6 cells/mouse) in the armpit. […] CTX at 30 mg kg^−1 was used as the positive control and the vehicle as the negative control. The weight of the animals was recorded every three days. All of the animals were killed on the 21st day after tumour inoculation, and the tumours were excised and weighed. The inhibition rate was calculated as follows: (C−T)/C×100 where T is the average tumor weight of the treated group and C is the average tumor weight of the negative control group.

Lewis lung cancer [4] = experiment: In vivo antitumor activity, Lewis lung cancer-bearing mice; conditions: i.p. once a day for seven days at the dosage of Table 2 (about one-fifth of LD50; CTX 30 mg kg^−1), tumour weight day 21, mean ± SD
Description: as §3

Lewis lung cancer [5] = system: Lewis lung cancer; set-up: method as in PMID 12620075; conditions: mice, dosage 40 mg kg^−1; cited from earlier work
KM mice [6] = conditions: mouse, in vivo; cited from earlier work
Sarcoma 180 [7] = system: Sarcoma 180; set-up: method as in PMID 12620075; conditions: mice, dosage 40 mg kg^−1; cited from earlier work
[8] = Homo sapiens, ECa-109, MTT assay

SMILES: COc1ccc2c3ccnc(C)c3n(CCCCn3c4ccccc4c4ccnc(-c5cccs5)c43)c2c1 [Compound 5w, 7-methoxy-1-methyl-9–(4-(1–(2-thienyl)-β-carboline-9-yl)butyl)-β-carboline]
- IC50 (HepG2): 15.4 ± 2.7 µM
- IC50 (BGC-823): 16.5 ± 1.9 µM
- IC50 [1]: < 20 µM
- IC50 (HT-29): 13.1 ± 3.5 µM
- Anti-angiogenic effect in CAM assay (in words) (angiogenesis of CAM): inhibited angiogenesis
- Acute toxicity Neurotoxic effect (KM mice [2]): +
- Acute toxicity LD50 (KM mice [2]): 50 mg/kg
- IC50 (Eca-109; [8]): 15.4 ± 1.9 µM
- IC50 (MCF-7): 14.1 ± 1.4 µM
- IC50 (LLC; Lewis lung carcinoma): 13.1 ± 2.4 µM

SMILES: Cc1nccc2c3ccccc3n(CCCCCn3c4ccccc4c4ccnc(-c5cccnc5)c43)c12 [Compound 5c, 1–(3-pyridyl)-9–(5-(1-methyl-β-carboline-9-yl)pentyl)-β-carboline]
- IC50 (HepG2): 10.5 ± 2.1 µM
- IC50 (BGC-823): 22.6 ± 1.9 µM
- IC50 (HT-29): 13.3 ± 2.4 µM
- Acute toxicity LD50 (KM mice [2]): 175 mg/kg
- IC50 (Eca-109; [8]): 25.3 ± 3.2 µM
- IC50 (MCF-7): 15.3 ± 2.6 µM
- Tumor inhibition rate (%) Sarcoma 180 (Sarcoma 180 [3]): 33.6% and 33.6 ± 9.2%
- IC50 (LLC; Lewis lung carcinoma): 5.7 ± 1.2 µM

SMILES: Cc1nccc2c3ccccc3n(CCCCCn3c4ccccc4c4ccnc(-c5cccs5)c43)c12 [Compound 5g, 1–(2-thienyl)-9–(5-(1-methyl-β-carboline-9-yl)pentyl)-β-carboline]
- IC50 (HepG2): 18.8 ± 2.3 µM
- IC50 (BGC-823): 97.6 ± 12.4 µM
- IC50 [1]: 18.8 to 97.6 µM
- IC50 (HT-29): 32.3 ± 5.3 µM
- IC50 (Eca-109; [8]): 30.8 ± 3.2 µM
- IC50 (MCF-7): 75.5 ± 10.7 µM
- melting point: 158.4 to 159.2 °C
- IC50 (LLC; Lewis lung carcinoma): 22.7 ± 1.4 µM

SMILES: COc1ccc2c3ccnc(C)c3n(CCCCCn3c4ccccc4c4ccnc(C)c43)c2c1 [Compound 5t, 7-methoxy-1-methyl-9–(5-(1-methyl-β-carboline-9-yl)pentyl)-β-carboline]
- IC50 (HepG2): 31.6 ± 2.2 µM
- IC50 (BGC-823): 42.7 ± 2.9 µM
- IC50 (HT-29): 4.5 ± 0.6 µM
- Acute toxicity Neurotoxic effect (KM mice [2]): +
- Acute toxicity LD50 (KM mice [2]): 35 mg/kg
- IC50 (Eca-109; [8]): 51.9 ± 7.4 µM
- IC50 (MCF-7): 17.6 ± 3.4 µM
- Tumor inhibition rate (%) Sarcoma 180 (Sarcoma 180 [3]): 37.2% and 37.2 ± 4.4%
- IC50 (LLC; Lewis lung carcinoma): 3.1 ± 0.4 µM

SMILES: Cc1nccc2c3ccccc3n(CCCCn3c4ccccc4c4ccnc(-c5cccnc5)c43)c12 [Compound 5b, 1–(3-pyridyl)-9–(4-(1-methyl-β-carboline-9-yl)butyl)-β-carboline]
- IC50 (HepG2): 15.9 ± 1.4 µM
- IC50 (BGC-823): 12.1 ± 2.3 µM
- IC50 [1]: < 20 µM
- IC50 (HT-29): 12.6 ± 1.2 µM
- Anti-angiogenic effect in CAM assay (in words) (angiogenesis of CAM): could inhibit the angiogenesis of CAM; also recorded: inhibited angiogenesis
- Acute toxicity Neurotoxic effect (KM mice [2]): –^b
- Acute toxicity LD50 (KM mice [2]): 150 mg/kg
- IC50 (Eca-109; [8]): 10.5 ± 1.3 µM
- IC50 (MCF-7): 8.4 ± 1.7 µM
- IC50 (LLC; Lewis lung carcinoma): 12.4 ± 2.1 µM

SMILES: O=P1(N(CCCl)CCCl)NCCCO1 (centres unmarked) [CTX, Cyclophosphamide, reference compound]
- Tumor inhibition rate (%) Lewis lung cancer (Lewis lung cancer [4]): 80.7 ± 2.1%
- Tumor inhibition rate (%) Sarcoma 180 (Sarcoma 180 [3]): 82.5 ± 3.4%

SMILES: Cc1nccc2c3ccccc3n(CCCCn3c4ccccc4c4ccnc(C)c43)c12 [Compound B-9-3, 1-Methyl-9-[4–(1-methyl-β-carboline-9-yl)butyl]-β-carboline, reference compound]
- IC50 (HepG2): > 100 µM
- IC50 (BGC-823): 22.3 ± 2.9 µM
- IC50 (HT-29): 40.6 ± 5.8 µM
- IC50 (Eca-109; [8]): 14.5 ± 2.2 µM
- IC50 (MCF-7): 13.2 ± 1.5 µM
- Tumor inhibition rate (%) Lewis lung cancer (Lewis lung cancer [5]): 40.4%
- Acute toxicity LD50 (KM mice [6]): 200 mg/kg
- IC50 (LLC; Lewis lung carcinoma): 6.1 ± 0.9 µM
- Tumor inhibition rate (%) Sarcoma 180 (Sarcoma 180 [7]): 56.2%

SMILES: COc1ccc(-c2nccc3c4ccccc4n(CCCCn4c5ccccc5c5ccnc(-c6cccs6)c54)c23)cc1 [Compound 5o, 1–(4-methoxyphenyl)-9–(4-(1–(2-thienyl)-β-carboline-9-yl)butyl)-β-carboline]
- IC50 (HepG2): > 100 µM
- IC50 (BGC-823): > 100 µM
- IC50 (HT-29): > 100 µM
- IC50 (Eca-109; [8]): > 100 µM
- IC50 (MCF-7): > 100 µM
- melting point: 232.5 to 233.3 °C
- IC50 (LLC; Lewis lung carcinoma): 96.8 ± 9.8 µM

SMILES: Cc1nccc2c3ccccc3n(CCCCCCn3c4ccccc4c4ccnc(-c5cccnc5)c43)c12 [Compound 5d, 1–(3-pyridyl)-9–(6-(1-methyl-β-carboline-9-yl)hexyl)-β-carboline]
- IC50 (HepG2): > 100 µM
- IC50 (BGC-823): > 100 µM
- IC50 (HT-29): > 100 µM
- IC50 (Eca-109; [8]): < 20 µM
- IC50 (Eca-109; MTT assay): 18.9 ± 3.1 µM
- IC50 (MCF-7): > 100 µM
- melting point: 141.3 to 142.9 °C
- IC50 (LLC; Lewis lung carcinoma): < 20 µM
- IC50 (LLC): 14.5 ± 0.9 µM

SMILES: Cc1nccc2c3ccccc3n(CCCCn3c4ccccc4c4ccnc(-c5ccccc5Cl)c43)c12 [Compound 5i, 1–(2-chlorophenyl)-9–(4-(1-methyl-β-carboline-9-yl)butyl)-β-carboline]
- IC50 (HepG2): 23.9 ± 3.7 µM
- IC50 (BGC-823): 37.9 ± 4.2 µM
- IC50 [1]: 18.8 to 97.6 µM
- IC50 (HT-29): 28.3 ± 1.6 µM
- IC50 (Eca-109; [8]): 23.4 ± 4.1 µM
- IC50 (MCF-7): 95.5 ± 14.8 µM
- melting point: 232 to 232.8 °C
- IC50 (LLC; Lewis lung carcinoma): 44.7 ± 3.6 µM
